Measurements from patent publication US10774064B2 (Cadent Therapeutics, Inc., priority 2016, dated 2020).

The compounds below were run against T1, small-conductance Ca2+-activated K+ channels (SK channels, subtype 2) (Homo sapiens, UniProt Q9H2S1) (assay: whole-cell patch-clamp of ionic current through SK2 channels in HEK293 cells (SC100)). Details: whole-cell patch-clamp, HEK293 cells expressing SK2 channels; concentration that increases the basal current by 100%.
T1 construct: expressed in transfected cells; host or cells: HEK293
Format: cell-based
Summary of the method: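 SC100, the concentration doubling basal current (a 100% increase), was taken from SK2 currents recorded by whole-cell patch-clamp in SK2-expressing HEK293 cells.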

| SC100 (μM) | SMILES |
| --- | --- |
| ++ (++ means 200 nM-1000 nM) | Cc1ccn(-c2nc(NC3CCC(F)(F)CC3)cc(N3CC(F)(F)OC(F)(F)C3)n2)n1 [IN11030-044-P1] |
| + (+ means >1 uM) | CC(=O)c1cc(NC2CCC(F)(F)CC2)nc(-c2nc(C)cs2)n1 [IN11030-054-P1, 1-(6-((4,4-difluorocyclohexyl)amino)-2-(4-methylthiazol-2-yl)pyrimidin-4-yl) ethan-1-one] |
| ++ (++ means 200 nM-1000 nM) | COc1cccc2c(NC3CCC(F)(F)CC3)nc(-c3nc(C)cs3)nc12 [IN11030-081-P1, N-(4,4-difluorocyclohexyl)-8-methoxy-2-(4-methylthiazol-2-yl) quinazolin-4-amine] |
| ++ (++ means 200 nM-1000 nM) | Cc1csc(-c2nc(NC3CCC(F)(F)CC3)cc(C(C)(C)O)n2)n1 [IN11030-083-P1, 2-(6-((4,4-difluorocyclohexyl)amino)-2-(4-methylthiazol-2-yl)pyrimidin-4-yl) propan-2-ol] |
| + (+ means >1 uM) | Cc1ccn(-c2nc(NC3CCC(F)(F)CC3)cc(OCCC#N)n2)n1 [IN11030-095-P1] |
| +++ (+++ means <200 nM) | Cc1ccn(-c2cc(COC(=O)N(C)C)cc(NC3CCC(F)(F)CC3)n2)n1 [IN11039-006-P1] |
| ++ (++ means 200 nM-1000 nM) | COC(=O)NCCOc1cc(NC2CCC(F)(F)CC2)nc(-c2nc(C)cs2)n1 [IN11039-009-P1] |
| ++ (++ means 200 nM-1000 nM) | COCCN(C)Cc1cc(NC2CCC(F)(F)CC2)nc(-n2ccc(C)n2)c1 [IN11039-017-P1] |
| +++ (+++ means <200 nM) | Cc1ccn(-c2cc(COC3CCCNC3)cc(NC3CCC(F)(F)CC3)n2)n1 (centres unmarked) [IN11039-019-P1, N-(4,4-difluorocyclohexyl)-6-(3-methyl-1H-pyrazol-1-yl)-4-((piperidin-3-yloxy)methyl)pyridin-2-amine] |
| + (+ means >1 uM) | Cc1ccn(-c2cc3ccccc3c(NC3CCC(F)(F)CC3)n2)n1 [IN11039-023-P1, N-(4,4-difluorocyclohexyl)-3-(3-methyl-1H-pyrazol-1-yl)isoquinolin-1-amine] |
| ++ (++ means 200 nM-1000 nM) | CNCc1cc(NC2CCC(F)(F)CC2)nc(-n2ccc(C)n2)c1 [IN11039-026-P1] |
| + (+ means >1 uM) | Cc1ccn(-c2cc3c(c(NC4CCC(F)(F)CC4)n2)CCCC3)n1 [IN11039-036-P1, N-(4,4-difluorocyclohexyl)-3-(3-methyl-1H-pyrazol-1-yl)-5,6,7,8-tetrahydro isoquinolin-1-amine] |
| ++ (++ means 200 nM-1000 nM) | COc1nc(-c2nc(C)cs2)nc(NC2CCC(F)(F)CC2)c1F [IN11039-058-P1, N-(4,4-difluorocyclohexyl)-5-fluoro-6-methoxy-2-(4-methylthiazol-2-yl)pyrimidin-4-amine] |
| +++ (+++ means <200 nM) | Cc1ccn(-c2cc(COc3ncccc3C(C)O)cc(NC3CCC(F)(F)CC3)n2)n1 (centres unmarked) [IN11039-066-P1] |
| +++ (+++ means <200 nM) | Cc1ccn(-c2cc(COc3ncccc3C(C)(C)O)cc(NC3CCC(F)(F)CC3)n2)n1 [IN11039-069-P1] |
| + (+ means >1 uM) | Cc1csc(-c2nc(NC3CCC(F)(F)CC3)c(O)c(=O)[nH]2)n1 [IN11039-094-P1, 6-((4,4-difluorocyclohexyl)amino)-2-(4-methylthiazol-2-yl) pyrimidine-4,5-diol] |
| + (+ means >1 uM) | COc1cc(NC2CCC(F)(F)CC2)nc(-n2ccc(C)n2)n1 [IN11053-005-P1] |
| + (+ means >1 uM) | COCc1cc(NC2CCC(F)(F)CC2)nc(-n2ccc(C)n2)n1 [IN11053-007-P1, N-(4,4-difluorocyclohexyl)-6-(methoxymethyl)-2-(3-methyl-1H-pyrazol-1-yl)pyrimidin-4-amine] |
| ++ (++ means 200 nM-1000 nM) | Cc1ccn(-c2nc(COc3ccc(C#N)cn3)cc(NC3CCC(F)(F)CC3)n2)n1 [IN11053-013-P1] |
| + (+ means >1 uM) | Cc1ccn(-c2nc(NC3CCC(F)(F)CC3)cc(OC(C)C)n2)n1 [IN11053-021-P1] |
